Laboratory results taken from patent EP4389751A1, “HETEROCYCLIC COMPOUNDS AND USES THEREOF” (Kumquat Biosciences Inc., priority 2021, dated 2024).
Where two headings read alike, the source gives them in different places.

Tests used:
[1] = target: T1, K-Ras G12S (Homo sapiens, UniProt P01116, G12S); assay: HTRF assay of the K-Ras / SOS1 interaction; format: biochemical; conditions: IC50 (against K-Ras G12D) to IC50 (against K-Ras G12S)
T1 construct: made in house; host or cells: E. coli (e.g., BL21 (DE3))
T1 sequence (P01116 1-188 isoform P01116-2 G12S): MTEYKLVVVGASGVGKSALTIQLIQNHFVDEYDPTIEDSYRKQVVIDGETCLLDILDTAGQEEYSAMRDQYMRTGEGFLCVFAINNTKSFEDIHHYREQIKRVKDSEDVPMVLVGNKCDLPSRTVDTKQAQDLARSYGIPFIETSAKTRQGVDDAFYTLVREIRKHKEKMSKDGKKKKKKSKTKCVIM
Outline: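 Compounds (duplicates, 10 µM to 0.01 µM) were incubated ≥~10 min with Eu-labelled GST-K-Ras G12S and XL665-labelled His-hSOS1 in HEPES pH 7.4 buffer containing NaCl, DTT, BSA and Igepal. Disruption measured as HTRF emission ratio 665/620 nm, fitted to IC50.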

[2] = test system: GP2D cells; assay: Cell proliferation assay (CellTiter-Glo), K-Ras G12D cells; format: cell-based; conditions: read-out: Inhibition of GP2D Cells (IC50)
Outline: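 CellTiter-Glo luminescence, taken roughly 5 days after dosing, measured growth of G12D-mutant GP2D cells in DMEM/2 mM glutamine/10% FBS. Compound dilution series (e.g., 9 points, 3-fold) added the day after plating. Four-parameter fitting gave IC50.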

[3] = test system: A549 cells; assay: Cell proliferation assay (CellTiter-Glo), K-Ras G12S cells; format: cell-based; conditions: Homo sapiens
Protocol: A549 (ATCC CRL-185) and LS123 (ATCC CRL-255) cell lines comprise a G12S mutation and can be used to assess Ras cellular signaling in vitro, e.g., in response to the compounds herein. A549 culture medium is prepared with RPMI-1640 and 10% heat-inactivated FBS. LS123 culture medium is prepared with RPMI-1640 and 10% heat-inactivated FBS. A CellTiter-Glo (CTG) luminescent based assay (Promega) is used to assess growth of the cells, as a measurement of the ability of the compounds herein to inhibit Ras signaling in the cells. The cells (e.g., 800 per well) are seeded in their respective culture medium in standard tissue culture-treated 384-well format plates (Falcon #08-772-116) or ultra-low attachment surface 384-well format plates (S-Bio # MS-9384WZ). The day after plating, cells are treated with a dilution series (e.g., a 10 point 3-fold dilution series) of the compounds herein (e.g., approximately 40 µl final volume per well). Cell viability can be monitored (e.g., approximately 6 days later) according to the manufacturer's recommended instructions, where the CellTiter-Glo reagent is added (e.g., approximately 10 µl), vigorously mixed, covered, and placed on a plate shaker (e.g., approximately for 20 min) to ensure sufficient cell lysis prior to assessment of luminescent signal. The IC50 values are determined using the four parameter fit. The resulting IC50 value is a measurement of the ability of the compounds herein to reduce cell growth of Ras-driven cells (e.g., tumor cell lines) in vitro and/or in vivo.

[4] = A549, A549 cells (K-Ras G12S), bin ≤ 500 nM, read-out: Inhibition of A549 Cells (IC50)
[5] = A549, A549 cells (K-Ras G12S), bin 500 nM to 5 µM, read-out: Inhibition of A549 Cells (IC50)
[6] = A549, read-out: Inhibition of A549 Cells (IC50)

SMILES	Ratio of IC50 KRAS G12D vs. IC50 KRAS G12S [1]	IC50 ([2]; GP2D cells (K-Ras G12D)) [µM]	IC50 [3, 4] [µM]	IC50 [3, 5] [µM]	IC50 ([2]; GP2d) [µM]	IC50 [3, 6] [µM]
N#Cc1c(N)sc2c(F)ccc(-c3c(Cl)cc4c(N5CCC6C5CCN6C(=O)n5cncn5)nc(OC[C@@]56CCCN5C[C@H](F)C6)nc4c3F)c12 (stereo partly drawn) [Compound A108, 4-(4-(4-(1H-1,2,4-triazole-1-carbonyl)hexahydropyrrolo[3,2-b]pyrrol-1(2H)-yl)-6-chloro-8-fluoro-2-(((2R,7aS)-2-fluorotetrahydro-1H-pyrrolizin-7a(5H)-yl)methoxy)quinazolin-7-yl)-2-amino-7-fluorobenzo[b]thiophene-3-carbonitrile]	A (A: indicates that the ratio of IC50 against KrasG12D vs. IC50 against KrasG12S is 1-fold or greater)	≤ 1	≤ 0.5			
Nc1nc2c(-c3c(Cl)cc4c(N5CC6CCC(C5)N6C(=O)n5ccnc5)nc(OC[C@@]56CCCN5C[C@H](F)C6)nc4c3F)ccc(F)c2s1 [Compound A289, (3-(7-(2-amino-7-fluorobenzo[d]thiazol-4-yl)-6-chloro-8-fluoro-2-(((2R,7aS)-2-fluorotetrahydro-1H-pyrrolizin-7a(5H)-yl)methoxy)quinazolin-4-yl)-3,8-diazabicyclo[3.2.1]octan-8-yl)(1H-imidazol-1-yl)methanone]	A (A: indicates that the ratio of IC50 against KrasG12D vs. IC50 against KrasG12S is 1-fold or greater)	≤ 1		0.5 to 5		
Cc1ncn(C(=O)N2C3CCC2CN(c2nc(OC[C@@]45CCCN4C[C@H](F)C5)nc4c(F)c(-c5ccc(F)c6sc(N)c(C#N)c56)c(Cl)cc24)C3)n1 [Compound A186, 2-amino-4-(6-chloro-8-fluoro-2-(((2R,7aS)-2-fluorotetrahydro-1H-pyrrolizin-7a(5H)-yl)methoxy)-4-(8-(3-methyl-1H-1,2,4-triazole-1-carbonyl)-3,8-diazabicyclo[3.2.1]octan-3-yl)quinazolin-7-yl)-7-fluorobenzo[b]thiophene-3-carbonitrile]	A (A: indicates that the ratio of IC50 against KrasG12D vs. IC50 against KrasG12S is 1-fold or greater)				≤ 1	0.5 to 5
Nc1nc2c(-c3c(Cl)cc4c(N5CC6CCC(C5)N6C(=O)n5cncn5)nc(OC[C@@]56CCCN5C[C@H](F)C6)nc4c3F)ccc(F)c2s1 [Compound A111, (3-(7-(2-amino-7-fluorobenzo[d]thiazol-4-yl)-6-chloro-8-fluoro-2-(((2R,7aS)-2-fluorotetrahydro-1H-pyrrolizin-7a(5H)-yl)methoxy)quinazolin-4-yl)-3,8-diazabicyclo[3.2.1]octan-8-yl)(1H-1,2,4-triazol-1-yl)methanone]	A (A: indicates that the ratio of IC50 against KrasG12D vs. IC50 against KrasG12S is 1-fold or greater)	≤ 1		0.5 to 5		
Cc1nc(C)n(C(=O)N2CC3(CCCN(c4nc(OC[C@@]56CCCN5C[C@H](F)C6)nc5c(F)c(-c6ccc(F)c7sc(N)c(C#N)c67)c(Cl)cc45)C3)C2)n1 [Compound A190, 2-amino-4-(6-chloro-4-(2-(3,5-dimethyl-1H-1,2,4-triazole-1-carbonyl)-2,6-diazaspiro[3.5]nonan-6-yl)-8-fluoro-2-(((2R,7aS)-2-fluorotetrahydro-1H-pyrrolizin-7a(5H)-yl)methoxy)quinazolin-7-yl)-7-fluorobenzo[b]thiophene-3-carbonitrile]	A (A: indicates that the ratio of IC50 against KrasG12D vs. IC50 against KrasG12S is 1-fold or greater)	1 to 10		0.5 to 5		
Nc1nc2c(-c3c(Cl)cc4c(N5CC6CCC(C5)N6C(=O)n5ccnc5Cl)nc(OC[C@@]56CCCN5C[C@H](F)C6)nc4c3F)ccc(F)c2s1 [Compound A242, (3-(7-(2-amino-7-fluorobenzo[d]thiazol-4-yl)-6-chloro-8-fluoro-2-(((2R,7aS)-2-fluorotetrahydro-1H-pyrrolizin-7a(5H)-yl)methoxy)quinazolin-4-yl)-3,8-diazabicyclo[3.2.1]octan-8-yl)(2-chloro-1H-imidazol-1-yl)methanone]	A (A: indicates that the ratio of IC50 against KrasG12D vs. IC50 against KrasG12S is 1-fold or greater)	≤ 1		0.5 to 5		
Nc1nc2c(-c3c(Cl)cc4c(N5C[C@H]6CC[C@@H](C5)N6C(=O)Nc5ccncn5)nc(OC[C@@]56CCCN5C[C@H](F)C6)nc4c3F)ccc(F)c2s1 [Compound A223, (1R,5S)-3-(7-(2-amino-7-fluorobenzo[d]thiazol-4-yl)-6-chloro-8-fluoro-2-(((2R,7aS)-2-fluorotetrahydro-1H-pyrrolizin-7a(5H)-yl)methoxy)quinazolin-4-yl)-N-(pyrimidin-4-yl)-3,8-diazabicyclo[3.2. 1]octane-8-carboxamide]	A (A: indicates that the ratio of IC50 against KrasG12D vs. IC50 against KrasG12S is 1-fold or greater)				≤ 1	0.5 to 5
Nc1nc2c(-c3c(Cl)cc4c(N5CCC6(CC5)CN(C(=O)n5cncn5)C6)nc(OC[C@@]56CCCN5C[C@H](F)C6)nc4c3F)ccc(F)c2s1 [Compound A233, (7-(7-(2-amino-7-fluorobenzo[d]thiazol-4-yl)-6-chloro-8-fluoro-2-(((2R,7aS)-2-fluorotetrahydro-1H-pyrrolizin-7a(5H)-yl)methoxy)quinazolin-4-yl)-2,7-diazaspiro[3.5]nonan-2-yl)(1H-1,2,4-triazol-1-yl)methanone]	A (A: indicates that the ratio of IC50 against KrasG12D vs. IC50 against KrasG12S is 1-fold or greater)	1 to 10		0.5 to 5		
C#Cc1c(F)ccc2cc(O)cc(-c3ncc4c(N5CCOCC6(CN(C(=O)n7cncn7)C6)C5)nc(OC[C@@]56CCCN5C[C@H](F)C6)nc4c3F)c12 [Compound A158, (9-(7-(8-ethynyl-7-fluoro-3-hydroxynaphthalen-1-yl)-8-fluoro-2-(((2R,7aS)-2-fluorotetrahydro-1H-pyrrolizin-7a(5H)-yl)methoxy)pyrido[4,3-d]pyrimidin-4-yl)-6-oxa-2,9-diazaspiro[3.6]decan-2-yl)(1H-1,2,4-triazol-1-yl)methanone]	A (A: indicates that the ratio of IC50 against KrasG12D vs. IC50 against KrasG12S is 1-fold or greater)	1 to 10		0.5 to 5		
N#Cc1cnn(C(=O)N2C3CCC2CN(c2nc(OC[C@@]45CCCN4C[C@H](F)C5)nc4c(F)c(-c5ccc(F)c6sc(N)nc56)c(Cl)cc24)C3)c1 [Compound A253, 1-(3-(7-(2-amino-7-fluorobenzo[d]thiazol-4-yl)-6-chloro-8-fluoro-2-(((2R,7aS)-2-fluorotetrahydro-1H-pyrrolizin-7a(5H)-yl)methoxy)quinazolin-4-yl)-3,8-diazabicyclo[3.2. 1]octane-8-carbonyl)-1H-pyrazole-4-carbonitrile]		≤ 1		0.5 to 5		
N#Cc1c(N)sc2c(F)ccc(-c3c(Cl)cc4c(N5CC6CCC(C5)N6C(=O)n5ccnc5)nc(OC[C@@]56CCCN5C[C@H](F)C6)nc4c3F)c12 [Compound A105, 4-(4-(8-(1H-imidazole-1-carbonyl)-3,8-diazabicyclo[3.2.1]octan-3-yl)-6-chloro-8-fluoro-2-(((2R,7aS)-2-fluorotetrahydro-1H-pyrrolizin-7a(5H)-yl)methoxy)quinazolin-7-yl)-2-amino-7-fluorobenzo[b]thiophene-3-carbonitrile]		≤ 1	≤ 0.5			
N#Cc1c(N)sc2c(F)ccc(-c3c(Cl)cc4c(N5CC6CCC(C5)N6C(=O)Nc5ncccn5)nc(OC[C@@]56CCCN5C[C@H](F)C6)nc4c3F)c12 [Compound A215, 3-(7-(2-amino-3-cyano-7-fluorobenzo[b]thiophen-4-yl)-6-chloro-8-fluoro-2-(((2R,7aS)-2-fluorotetrahydro-1H-pyrrolizin-7a(5H)-yl)methoxy)quinazolin-4-yl)-N-(pyrimidin-2-yl)-3,8-diazabicyclo[3.2. 1]octane-8-carboxamide]		≤ 1	≤ 0.5			
